SMILES strings stand for the structures. Several values for one entry are separate records, joined by “and”; a condition that tells them apart may be missing. Equal entries are not always repeated.

The target in one assay is PIK3CG (UniProt P48736). The assay can be described thus: Inhibition of PIK3CG Kinase Activity.
The next assay concerns the target EGFR (Hamster) (UniProt P00533).
Assay [1] deals with EGFR (UniProt P00533).
For assay [2], the target named is EGFR (UniProt P00533). The following applies: cho.ir; for activation: concentration not given here.
The target of the next assay is PIK3CG;PIK3CA (human) (UniProt P48736). Kind of assay: Antiproliferation of PC3-MM2 Cells. The following applies: pc-3.
Chain of PIK3CG;PIK3CA (human) (P48736 whole entry, looked up): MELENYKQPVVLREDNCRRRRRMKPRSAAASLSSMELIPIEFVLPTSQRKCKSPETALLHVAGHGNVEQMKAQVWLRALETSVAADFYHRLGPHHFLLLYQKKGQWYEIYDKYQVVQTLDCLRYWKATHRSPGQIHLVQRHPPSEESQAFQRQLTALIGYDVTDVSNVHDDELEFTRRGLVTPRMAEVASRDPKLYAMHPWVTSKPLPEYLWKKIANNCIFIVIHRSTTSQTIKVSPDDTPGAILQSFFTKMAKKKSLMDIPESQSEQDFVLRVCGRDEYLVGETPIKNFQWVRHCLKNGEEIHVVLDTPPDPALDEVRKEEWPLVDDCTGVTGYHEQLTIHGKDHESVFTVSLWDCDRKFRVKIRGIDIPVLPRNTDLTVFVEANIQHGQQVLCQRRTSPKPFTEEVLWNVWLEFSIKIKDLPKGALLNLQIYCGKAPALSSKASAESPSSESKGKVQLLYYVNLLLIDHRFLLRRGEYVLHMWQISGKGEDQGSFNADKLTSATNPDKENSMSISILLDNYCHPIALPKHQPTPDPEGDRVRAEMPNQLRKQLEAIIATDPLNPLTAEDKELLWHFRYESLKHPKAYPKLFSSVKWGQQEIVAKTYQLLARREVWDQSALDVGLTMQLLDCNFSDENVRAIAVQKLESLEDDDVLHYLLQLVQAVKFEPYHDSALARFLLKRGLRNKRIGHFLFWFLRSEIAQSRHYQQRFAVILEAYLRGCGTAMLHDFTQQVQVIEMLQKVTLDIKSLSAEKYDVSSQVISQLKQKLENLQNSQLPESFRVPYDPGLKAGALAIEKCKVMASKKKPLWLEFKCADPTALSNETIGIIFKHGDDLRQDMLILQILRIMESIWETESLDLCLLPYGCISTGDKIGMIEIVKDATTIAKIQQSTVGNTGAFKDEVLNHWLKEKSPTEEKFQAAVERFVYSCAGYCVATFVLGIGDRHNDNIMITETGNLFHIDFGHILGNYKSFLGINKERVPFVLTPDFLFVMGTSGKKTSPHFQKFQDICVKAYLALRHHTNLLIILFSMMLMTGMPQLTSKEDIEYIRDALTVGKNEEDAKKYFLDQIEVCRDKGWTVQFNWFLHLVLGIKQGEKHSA
Assay [3] concerns the target EGFR (UniProt P00533). The source holds these as a separate data set.
In assay [4] the target is CDK2 (human) (UniProt P24941). Kind of assay: Enzyme Assay.
A further assay has as its target EGFR (mouse) (UniProt P00533).
Assay [5] addresses EGFR (UniProt P00533). The source holds these as a separate data set.
The next assay addresses MAPK14 (UniProt Q16539). The assay can be described thus: p38-alpha Kinase Inhibition.
The target in assay [6] is PIK3CD (Human) (UniProt O00329). The assay can be described thus: Enzyme Assay.
The target in assay [7] is PIK3CG (human) (UniProt P48736). Kind of assay: Enzyme Assay.
Chain of PIK3CG (human) (P48736 whole entry, looked up): as above
A further assay has as its target PIK3CA (human) (UniProt P42336). The assay can be described thus: Inhibition of PIK3CA Kinase Activity.
For a further assay, the target named is PIK3CB (Human) (UniProt P42338). The assay can be described thus: Inhibition of PIK3CB Kinase Activity.
Chain of PIK3CB (Human) (P42338 whole entry, looked up): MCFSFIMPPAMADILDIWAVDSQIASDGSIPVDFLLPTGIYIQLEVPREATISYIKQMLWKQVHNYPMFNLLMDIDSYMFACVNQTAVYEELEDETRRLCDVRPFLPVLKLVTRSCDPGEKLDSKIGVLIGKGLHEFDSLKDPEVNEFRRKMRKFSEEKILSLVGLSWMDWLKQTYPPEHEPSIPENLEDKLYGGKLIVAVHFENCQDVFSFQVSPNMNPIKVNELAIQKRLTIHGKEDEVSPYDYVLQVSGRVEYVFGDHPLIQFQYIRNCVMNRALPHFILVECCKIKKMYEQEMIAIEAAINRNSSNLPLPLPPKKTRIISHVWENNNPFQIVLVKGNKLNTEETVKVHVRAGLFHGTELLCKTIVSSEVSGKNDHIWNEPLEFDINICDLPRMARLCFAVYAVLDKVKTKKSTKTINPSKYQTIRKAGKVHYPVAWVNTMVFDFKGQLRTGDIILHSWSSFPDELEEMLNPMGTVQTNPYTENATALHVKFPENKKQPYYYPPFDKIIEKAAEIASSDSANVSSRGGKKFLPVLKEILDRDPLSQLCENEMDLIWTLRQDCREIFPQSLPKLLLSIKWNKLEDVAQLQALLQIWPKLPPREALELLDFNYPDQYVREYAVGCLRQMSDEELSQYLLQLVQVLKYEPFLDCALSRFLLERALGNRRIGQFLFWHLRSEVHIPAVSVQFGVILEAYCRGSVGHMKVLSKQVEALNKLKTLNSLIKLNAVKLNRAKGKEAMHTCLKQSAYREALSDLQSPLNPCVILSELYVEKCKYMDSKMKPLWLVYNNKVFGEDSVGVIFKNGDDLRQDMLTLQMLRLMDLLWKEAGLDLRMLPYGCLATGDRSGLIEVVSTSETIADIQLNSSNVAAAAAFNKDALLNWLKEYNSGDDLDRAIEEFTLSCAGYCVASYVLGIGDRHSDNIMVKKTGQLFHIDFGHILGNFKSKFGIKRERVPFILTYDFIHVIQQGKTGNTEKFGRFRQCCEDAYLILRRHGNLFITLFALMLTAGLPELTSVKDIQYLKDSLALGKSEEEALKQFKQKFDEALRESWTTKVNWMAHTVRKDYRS
In assay [8] the target is PIK3CD (Human) (UniProt O00329). Kind of assay: Inhibition of PIK3CD Kinase Activity.
Assay [9] has as its target PIK3CG (human) (UniProt P48736). The assay can be described thus: Inhibition of PIK3CG Kinase Activity.
In assay [10] the target is CDK2 (human) (UniProt P24941). The assay can be described thus: Enzyme Assay. The source holds these as a separate data set.

Chain of EGFR (P00533 whole entry, looked up): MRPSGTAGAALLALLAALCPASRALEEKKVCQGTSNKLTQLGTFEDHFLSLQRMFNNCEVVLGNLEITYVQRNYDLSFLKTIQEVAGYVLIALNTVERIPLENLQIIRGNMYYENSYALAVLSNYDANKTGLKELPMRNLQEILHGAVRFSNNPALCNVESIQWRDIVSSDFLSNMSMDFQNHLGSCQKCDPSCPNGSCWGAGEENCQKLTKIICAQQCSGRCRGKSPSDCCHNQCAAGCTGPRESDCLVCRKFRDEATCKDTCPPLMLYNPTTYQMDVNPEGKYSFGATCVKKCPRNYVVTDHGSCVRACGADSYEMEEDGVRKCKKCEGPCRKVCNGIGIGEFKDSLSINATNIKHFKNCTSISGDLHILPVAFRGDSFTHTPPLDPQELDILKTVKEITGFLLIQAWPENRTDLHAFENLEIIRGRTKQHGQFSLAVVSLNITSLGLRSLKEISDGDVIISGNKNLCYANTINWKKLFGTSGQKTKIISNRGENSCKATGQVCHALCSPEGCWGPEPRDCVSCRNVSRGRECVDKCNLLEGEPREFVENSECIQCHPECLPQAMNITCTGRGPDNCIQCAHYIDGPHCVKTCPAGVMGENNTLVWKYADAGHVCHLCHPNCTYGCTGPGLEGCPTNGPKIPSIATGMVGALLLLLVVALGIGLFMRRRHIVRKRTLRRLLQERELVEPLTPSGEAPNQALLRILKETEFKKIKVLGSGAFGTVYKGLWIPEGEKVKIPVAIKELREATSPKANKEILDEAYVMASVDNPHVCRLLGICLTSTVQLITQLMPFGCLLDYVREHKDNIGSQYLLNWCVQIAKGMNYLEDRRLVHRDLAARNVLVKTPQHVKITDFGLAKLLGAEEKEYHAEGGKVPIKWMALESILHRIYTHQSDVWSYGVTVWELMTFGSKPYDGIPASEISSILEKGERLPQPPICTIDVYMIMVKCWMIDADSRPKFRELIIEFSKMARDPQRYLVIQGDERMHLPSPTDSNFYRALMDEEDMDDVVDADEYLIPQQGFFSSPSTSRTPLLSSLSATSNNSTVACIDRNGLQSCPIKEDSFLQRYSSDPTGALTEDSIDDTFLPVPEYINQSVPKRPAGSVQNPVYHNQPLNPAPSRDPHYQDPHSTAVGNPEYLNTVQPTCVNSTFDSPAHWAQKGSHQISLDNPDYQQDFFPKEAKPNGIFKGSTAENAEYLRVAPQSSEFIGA
Chain of EGFR (Hamster) (P00533 whole entry, looked up): as above
Chain of PIK3CG (P48736 whole entry, looked up): as the sequence (P48736 whole entry, looked up) above
Chain of MAPK14 (Q16539 whole entry, looked up): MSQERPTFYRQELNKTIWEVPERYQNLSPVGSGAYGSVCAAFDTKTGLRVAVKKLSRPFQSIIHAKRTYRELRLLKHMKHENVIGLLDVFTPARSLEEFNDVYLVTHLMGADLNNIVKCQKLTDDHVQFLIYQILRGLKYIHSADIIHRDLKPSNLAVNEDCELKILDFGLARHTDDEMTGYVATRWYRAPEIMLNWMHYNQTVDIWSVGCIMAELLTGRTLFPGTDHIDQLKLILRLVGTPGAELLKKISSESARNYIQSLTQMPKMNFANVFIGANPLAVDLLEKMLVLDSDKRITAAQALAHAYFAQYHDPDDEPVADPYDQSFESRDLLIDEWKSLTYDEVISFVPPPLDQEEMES

What is called IC50 is the concentration at which inhibition is half-maximal. Read a high IC50 as lower potency. Take `CON=C1NC(=O)/C(=C/c2ccc3c(c2)OCO3)S1`: the IC50 against PIK3CG was below 1000 nM.

`O=C(O)c1cccc(N=Cc2cc(O)ccc2O)c1` registered an IC50 at EGFR (Hamster) above 10000 nM.

On EGFR [1], `CNc1cc2c(Nc3cccc(Br)c3)ncnc2cn1` registered an IC50 of 0.008 nM.

`COC(=O)c1cc(N=Cc2ccc(O)cc2O)ccc1O`: the IC50 on EGFR (Hamster) is above 100000 nM.

In general, EC50 refers to the concentration giving half of the maximal effect. Higher therefore signals a need for much substance. Consider `Cc1cccc2c(C3=C(O)C(=O)C(c4c[nH]c5ccccc45)=C(O)C3=O)c[nH]c12`, for which, on EGFR [2], the EC50 is 25000 nM.

Regarding `O=C1C(O)=C(c2coc3ccccc23)C(=O)C(O)=C1c1ccccc1`, the activation on EGFR [2] was below 5%.

For `COc1ccc2c(c1)c(/C=C1\Oc3cc(O)cc(O)c3C1=O)c1n2CCOC1=O`, in the assay with PIK3CG;PIK3CA (human), the IC50 was 5630 nM. That is a single-digit micromolar value.

Consider `O=C(Nc1cccc([N+](=O)[O-])c1)Nc1ncnc2nn3ccccc3c12`, for which the IC50 on EGFR [3] was above 10000 nM.

`CC(C)n1cnc2c(NCc3cccnc3)nc(NCC(O)(C(F)(F)F)C(F)(F)F)nc21` displayed an IC50 at CDK2 (human) [4] of 949 nM.

The compound `CC(C)[C@H]1C(=O)N[C@H](CO)Cc2c[nH]c3c(CCNC(=O)c4ccc(N=[N+]=[N-])cc4)ccc(c23)N1C` returned an ID50 at EGFR (mouse) of 1320 nM.

On EGFR [5], `CN(C)CCCn1nc(C2=C(c3cn(-c4cnc5ccccc5c4)c4ccccc34)C(=O)NC2=O)c2ccccc21` came in with an IC50 above 10000 nM.

Turning to `CCCCC[C@@H](Cc1ccc2c3c(c[nH]c13)C[C@@H](CO)NC(=O)[C@H](C(C)C)N2C)NC(=O)c1ccc(N=[N+]=[N-])cc1`, on EGFR (mouse), the ID50 came out at 71 nM.

`Nc1ccc2ncnc(Nc3cccc(Br)c3)c2n1` returned an IC50 against EGFR [1] of 7.6 nM.

Take `CN(C)CCCn1nc(C2=C(c3cn(-c4cccc5ccccc45)c4ccccc34)C(=O)NC2=O)c2ccccc21`: the IC50 on EGFR [5] was above 10000 nM.

For the compound `COc1ccc2c(c1)c(/C=C1\Oc3cc(O)cc(O)c3C1=O)c1n2CCNC1`, the IC50 in the assay with PIK3CG;PIK3CA (human) amounted to 2190 nM. That is a single-digit micromolar value.

Consider `O=C(c1ccc2[nH]c3c(c2c1)CCNC3)N1CCC(Cc2ccc(F)cc2)CC1`, for which the IC50 against MAPK14 is 243 nM.

As to `CC[C@H](Nc1nc(NCc2ccc(C)nc2)c2ncn(C(C)C)c2n1)[C@@H](C)O`, at CDK2 (human) [4], the IC50 was 3250 nM.

As to `Cc1nc2cnc3ccc(C#Cc4cccnc4)cc3c2n1-c1ccc(C(C)(C)C#N)cc1`, the IC50 against PIK3CD (Human) [6] is 34 nM; at PIK3CG (human) [7], 112 nM; on PIK3CA (human), 56 nM; against PIK3CB (Human) it was 446 nM; against PIK3CD (Human) [8], 35 nM; against PIK3CG (human) [9], 117 nM.

In the assay with PIK3CG;PIK3CA (human), `COc1ccc2c(c1)c(/C=C1\Oc3cc(O)cc(O)c3C1=O)c1n2CCOC1` came in with an IC50 of 1910 nM.

Turning to `O=C(Nc1ccc(F)cc1)Nc1ncnc2nn3ccccc3c12`, the IC50 against EGFR [3] is above 10000 nM.

`O=C(c1ccc2[nH]c3c(c2c1)CCNC3)N1CCC(Cc2ccccc2)CC1` came in with an IC50 against MAPK14 of 330 nM.

`CN=C1NC(=O)/C(=C/c2ccc3ncnc(N(C)C)c3c2)S1` returned an IC50 against PIK3CG below 1000 nM.

`CC[C@H](Nc1nc(NCc2cccc(F)c2)c2ncn(C(C)C)c2n1)[C@@H](C)O`: the IC50 against CDK2 (human) [4] was 120 nM.

Consider `COc1ccc2c(c1)c(/C=C1\Oc3cc(O)cc(O)c3C1=O)c1n2CCN(C)C1=O`, for which, in the assay with PIK3CG;PIK3CA (human), the IC50 stood at 5050 nM. This counts as single-digit micromolar.

On to `CN(C)CCCn1nc(C2=C(c3cn(-c4cccnc4)c4ccccc34)C(=O)NC2=O)c2ccccc21`, for which the IC50 at EGFR [5] was above 10000 nM.

For `CC[C@H](Nc1nc(NCc2cccc(Cl)c2)c2ncn(C(C)C)c2n1)[C@@H](C)O`, at CDK2 (human) [4], the IC50 came to 100 nM.

In turn, `O=C(Nc1ccc(Br)cc1)Nc1ncnc2nn3ccccc3c12` yielded an IC50 against EGFR [3] above 10000 nM.

For the compound `COC(=O)c1sccc1S(=O)(=O)N=C1NC(=O)/C(=C/c2ccc3ncccc3c2)S1`, the IC50 against PIK3CG was below 1000 nM.

On EGFR [1], `COc1ccc2ncnc(Nc3cccc(Br)c3)c2c1` had an IC50 of 30 nM.

On to `COc1cc2c(Nc3cccc(Br)c3)ncnc2cn1`, for which the IC50 at EGFR [1] worked out at 0.0026 nM. This IC50 is about 12000-fold lower than that of the compound before.

Turning to `C=C[C@@]1(C)CC[C@](C)(C(C)C)c2cc3c4c(c[nH]c4c21)C[C@@H](CO)NC(=O)[C@H](C(C)C)N3C`, the ID50 on EGFR (mouse) was determined as 2.23 nM.

`C=CC(C)(C)c1[nH]c2ccccc2c1C1=C(O)C(=O)C(c2c[nH]c3c(CC=C(C)C)cccc23)=C(O)C1=O` gave an EC50 at EGFR [2] of 15000 nM.

On to `N#Cc1cccc(NC(=O)Nc2ncnc3nn4ccccc4c23)c1`, for which, on EGFR [3], the IC50 was above 10000 nM.

`CN(C)c1cc2c(Nc3cccc(Br)c3)ncnc2cn1` registered an IC50 on EGFR [1] of 0.006 nM.

Compound `Nc1cc2c(Nc3cccc(Br)c3)ncnc2cn1` gave an IC50 against EGFR [1] of 0.13 nM.

Take `O=C(Nc1ccc(C(F)(F)F)cc1)Nc1ncnc2nn3ccccc3c12`: the IC50 against EGFR [3] is above 10000 nM.

Turning to `CC[C@H](Nc1nc(NCc2cccnc2)c2ncn(C(C)C)c2n1)C(C)(C)O`, the results for the IC50 against CDK2 (human) [10] and against CDK2 (human) [4] were 70 nM and 200 nM, respectively.

Compound `O=C(Nc1cccc(C(F)(F)F)c1)Nc1ncnc2nn3ccccc3c12` gave an IC50 against EGFR [3] above 10000 nM.

With `CN(C)CCCn1nc(C2=C(c3cn(-c4ccc5ccccc5c4)c4ccccc34)C(=O)NC2=O)c2ccccc21`, the IC50 on EGFR [5] was above 10000 nM.

In turn, `COc1c(C(=O)N2CCC(Cc3ccc(F)cc3)CC2)ccc2[nH]c3c(c12)CCNC3` returned an IC50 at MAPK14 of 242 nM.

As for `O=C(O)c1cc(N=Cc2ccccc2O)ccc1O`, the IC50 at EGFR (Hamster) was above 100000 nM.

`CC(C)[C@H]1C(=O)N[C@H](CO)Cc2c[nH]c3cccc(c23)N1C`: the ID50 on EGFR (mouse) is 1110 nM.

As for `CC[C@@](C)(CCCC(C)(C)SCCNC(=O)c1ccc(N=[N+]=[N-])cc1)c1ccc2c3c(c[nH]c13)C[C@@H](CO)NC(=O)[C@H](C(C)C)N2C`, the ID50 at EGFR (mouse) was determined as 4.4 nM.

At EGFR [2], `O=C1C(O)=C(c2csc3ccccc23)C(=O)C(O)=C1c1ccccc1` came in with an activation below 5%.

Take `CN(C)CCCn1nc(C2=C(c3cn(-c4cccs4)c4ccccc34)C(=O)NC2=O)c2ccccc21`: the IC50 against EGFR [5] is above 10000 nM.

At EGFR (mouse), `CCCCCCCCCCCC(=O)O[C@@H]1[C@@H](C)[C@@]2(O)[C@@H](C=C(CO)C[C@]3(O)C(=O)C(C)=C[C@@H]23)[C@@H]2C(C)(C)[C@]12OC(C)=O` gave an ID50 of 1.33 nM.

In turn, `COc1ccc2c(c1)c(/C=C1\Oc3cc(O)ccc3C1=O)c1n2CCNC1` gave an IC50 with PIK3CG;PIK3CA (human) of 1510 nM.

For `CC[C@H](Nc1nc(NCc2cnc(C)cc2C)c2ncn(C(C)C)c2n1)[C@@H](C)O`, the IC50 at CDK2 (human) [4] is 90 nM and 40 nM.

As to `COC(=O)c1cc(N=Cc2cc(OC)ccc2OC)ccc1O`, the IC50 against EGFR (Hamster) is above 10000 nM.

For `CCCCC[C@H](Cc1ccc2c3c(c[nH]c13)C[C@@H](CO)NC(=O)[C@H](C(C)C)N2C)NC(=O)c1ccc(N=[N+]=[N-])cc1`, the ID50 on EGFR (mouse) stood at 89 nM.

Turning to `COc1ccc2c(c1)c(/C=C1\Oc3cc(O)ccc3C1=O)c1n2CCC1`, in the assay with PIK3CG;PIK3CA (human), the IC50 came to 3400 nM.

As to `CCC(Nc1nc(NCc2ccc(C(F)(F)F)nc2)c2ncn(C(C)C)c2n1)C(O)C(F)(F)F` (centres undefined), the IC50 against CDK2 (human) [4] came to 368 nM.

For the compound `COC(=O)c1cc(NCc2cc(OC)ccc2OC)ccc1O`, the IC50 at EGFR (Hamster) was above 100000 nM.

The compound `O=C1C(O)=C(c2c[nH]c3ccccc23)C(=O)C(O)=C1c1ccccc1` gave an EC50 at EGFR [2] of 20000 nM.

`COc1ccc(C2=C(O)C(=O)C(c3ccccc3)=C(O)C2=O)cc1` registered an activation at EGFR [2] below 5%.

Regarding `CN(C)CCCn1nc(C2=C(c3cn(-c4csc5ccccc45)c4ccccc34)C(=O)NC2=O)c2ccccc21`, the IC50 at EGFR [5] is above 10000 nM.

Turning to `COC(=O)c1cc(N=Cc2ccccc2O)ccc1O`, the IC50 on EGFR (Hamster) was above 100000 nM.

Consider `C=CCN(/C=C1/C(=O)O[C@H](COC)[C@@]2(C)C1=C(O)C(=O)C1=C2[C@H](OC(C)=O)C[C@]2(C)C(=O)CC[C@H]12)CC=C`, for which the IC50 against PIK3CA (human) was 39 nM; against PIK3CB (Human), 88 nM; against PIK3CD (Human) [8], 124 nM; against PIK3CG (human) [9] it was 198 nM.

For the compound `CC1(C)CNC(=O)c2sc(N3CCOC[C@@H]3Cc3c[nH]c4ncccc34)nc2C1`, the IC50 at PIK3CA (human) was found to be 59 nM; on PIK3CB (Human), 1010 nM; at PIK3CD (Human) [8] it was 18 nM; at PIK3CG (human) [9], 31 nM.

The compound `COC(=O)c1cc(N=Cc2cccc(O)c2)ccc1O` showed an IC50 against EGFR (Hamster) above 100000 nM.

In the assay with PIK3CG;PIK3CA (human), `COc1ccc2c(c1)c(/C=C1\Oc3cc(O)cc(O)c3C1=O)c1n2CCN(C)C1` came in with an IC50 of 1610 nM.

`Cn1cc(C2=C(O)C(=O)C(c3ccccc3)=C(O)C2=O)c2ccccc21` returned an activation at EGFR [2] below 5%.

The values are drawn from the Kinase Knowledgebase extract (Sharma et al. 2016).
